These results are taken from patent US9221790B2, “Benzamide derivatives” (Dong-A Pharm. Co., Ltd., priority 2010, dated 2015).

For one data set, the target named is human 5-HT4 receptor (Homo sapiens (Human), UniProt Q13639). Put plainly: Binding affinity of compounds for 5-HT4 receptor ([H3]-GR113808 radioligand, COS-7 membrane homogenates). As for the experimental part:
The binding affinity of the compounds for a human 5-HT4 receptor was assayed according to the method as disclosed in the literature [Wyngaert et al., Journal of Neurochemistry, (1997) 69, 1810-1819]. For this purpose, COS-7 cells expressing the human 5-HT4 receptor were constructed and homogenized to obtain membrane homogenates which were then used in binding assay experiments. For the binding assay, the membrane homogenates were respectively mixed and incubated with different concentrations of test materials and [H3]-GR113808 (Amersham Biosciences). The concentrations of the individual test materials were set to 4 μM, 1 μM, 0.25 μM, and 0.0625 μM, respectively, and the concentration of [H3]-GR113808 was set to 0.595 nM. After the incubation was completed, the reaction products were collected in GF/B glass fiber filters using a Packard cell harvester, and the bound radioactivity was then determined using a liquid cell scintillation counter (Packard TopCount NXT™, Perkin Elmer). Specific binding of the radioligand to the 5-HT4 receptor was calculated by subtracting the non-specific binding of the radioligand from the total radioligand binding. IC50 was calculated from % inhibition of specific binding of the radioligand to the 5-HT4 receptor, with respect to varying concentrations of the test materials.

For the next data set, the system named is ICR mice. Put plainly: Acute oral toxicity of compounds in mice. The format is in vivo. The following applies: male ICR mice, single oral dose 1 g/10 mL/kg, 2 weeks observation. As for the experimental part: 200 mg of each of Example compounds was triturated in 1% hydroxypropyl methyl-cellulose, and the resulting triturations were then orally administered to 5-week old male ICR mice (20 g±2 g, n=5) at a dose of 1 g/10 mL/kg. The minimum lethal dose (MLD, mg/kg) of the individual compounds was investigated by the observation of the mortality, body weight, clinical symptoms and the like of animals over the entire experimental period of 2 weeks.

In the next data set the test system is SD rats. Put plainly: Evaluation of gastric emptying. The note with it: 5 mg/kg oral, semi-solid diet 1 hour after dosing, stomach extracted 50 minutes after meal. The format is in vivo, rat. How it is done: Evaluation of gastric emptying was carried out based on the method described in Iwanaga Y, et al., Jpn J Pharmacol. 1991, 56(3), 261-269. As experimental animals, SD rats (240 to 250 g) were used and divided into groups (n=5 to 6). On the day prior to the experiment, animals were fasted for 18 hours. Test materials were formulated as suspensions thereof in 0.5% (w/v) methylcellulose and were orally administered to the animals at a dose of 5 mg/kg. 1 hour after the oral administration of the test materials, 2 mL of a semi-solid diet was orally administered to the animals. The semi-solid diet was in the form of porridge formulated by pulverizing a standard solid diet together with distilled water in a mixer. 50 minutes after the administration of the semi-solid diet, the animals were sacrificed by cervical dislocation. After carrying out an abdominal incision, the stomach was extracted from the animals. The weight of diet remaining in the stomach was measured to thereby determine the gastric emptying rate (%). The gastric emptying rate was calculated according to the following equation.
Gastric Emptying Rate (%)=(1−X/Y)*100
X: Weight of diet remaining in the stomach extracted 50 minutes after administration of meal
Y: Weight of diet remaining in the stomach extracted immediately after administration of meal

A further data set deals with hERG potassium channel (Homo sapiens (Human), UniProt Q12809). Put plainly: Binding affinity for hERG potassium channel ([H3]-Astemizole radioligand, HEK-293 membrane homogenates, MDS Pharma Service). The note with it: probe [H3]-Astemizole (1.5 nM), 10 μM test material, 1.5 nM [H3]-Astemizole, hERG K+ channel, HEK-293 membranes. As for the experimental part: The binding affinity of the compounds for the human ether-a-go-go-related gene (hERG) potassium (K+) channel which is associated with cardiac QT prolongation was assayed in MDS Pharma Service (Catalog No. 265900). Membrane homogenates were obtained from mammalian HEK-293 cells expressing the hERG potassium channel and then used in the binding assay experiment. For the binding assay experiment, the membrane homogenates were respectively mixed and incubated with 10 μM of test materials and 1.5 nM of [H3]-Astemizole (Perkin Elmer). After the incubation was completed, the radioactivity bound to the hERG K+ channel was counted. The affinity of each test material for the hERG K+ channel was calculated from % inhibition of specific binding of the radioligand to the hERG K+ channel, resulting from the action of the test material.
(In general: The hERG channel carries a current that helps repolarise heart muscle cells.)

Setting [1] is: inhibition of specific binding of 0.595 nM [H3]-GR113808 to human 5-HT4 receptor, COS-7 membranes, read-out: IC50.

pIC50: −log10 of the molar value. Where two headings read alike, the source gives them in different places. Where only a bound is given, the exact number is not on record here.

human 5-HT4 receptor, sequence (Q13639 whole entry): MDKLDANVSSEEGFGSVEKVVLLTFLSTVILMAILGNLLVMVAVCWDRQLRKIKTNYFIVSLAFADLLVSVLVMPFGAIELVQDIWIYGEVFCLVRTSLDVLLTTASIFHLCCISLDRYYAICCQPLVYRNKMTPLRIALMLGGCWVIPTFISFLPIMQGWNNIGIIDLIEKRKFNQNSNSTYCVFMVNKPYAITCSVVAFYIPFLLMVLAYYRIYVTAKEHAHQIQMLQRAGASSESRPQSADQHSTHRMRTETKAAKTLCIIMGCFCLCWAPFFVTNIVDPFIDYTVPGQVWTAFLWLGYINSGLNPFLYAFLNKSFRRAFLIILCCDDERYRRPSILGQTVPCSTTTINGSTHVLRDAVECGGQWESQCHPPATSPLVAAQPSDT
hERG potassium channel, sequence (Q12809 whole entry): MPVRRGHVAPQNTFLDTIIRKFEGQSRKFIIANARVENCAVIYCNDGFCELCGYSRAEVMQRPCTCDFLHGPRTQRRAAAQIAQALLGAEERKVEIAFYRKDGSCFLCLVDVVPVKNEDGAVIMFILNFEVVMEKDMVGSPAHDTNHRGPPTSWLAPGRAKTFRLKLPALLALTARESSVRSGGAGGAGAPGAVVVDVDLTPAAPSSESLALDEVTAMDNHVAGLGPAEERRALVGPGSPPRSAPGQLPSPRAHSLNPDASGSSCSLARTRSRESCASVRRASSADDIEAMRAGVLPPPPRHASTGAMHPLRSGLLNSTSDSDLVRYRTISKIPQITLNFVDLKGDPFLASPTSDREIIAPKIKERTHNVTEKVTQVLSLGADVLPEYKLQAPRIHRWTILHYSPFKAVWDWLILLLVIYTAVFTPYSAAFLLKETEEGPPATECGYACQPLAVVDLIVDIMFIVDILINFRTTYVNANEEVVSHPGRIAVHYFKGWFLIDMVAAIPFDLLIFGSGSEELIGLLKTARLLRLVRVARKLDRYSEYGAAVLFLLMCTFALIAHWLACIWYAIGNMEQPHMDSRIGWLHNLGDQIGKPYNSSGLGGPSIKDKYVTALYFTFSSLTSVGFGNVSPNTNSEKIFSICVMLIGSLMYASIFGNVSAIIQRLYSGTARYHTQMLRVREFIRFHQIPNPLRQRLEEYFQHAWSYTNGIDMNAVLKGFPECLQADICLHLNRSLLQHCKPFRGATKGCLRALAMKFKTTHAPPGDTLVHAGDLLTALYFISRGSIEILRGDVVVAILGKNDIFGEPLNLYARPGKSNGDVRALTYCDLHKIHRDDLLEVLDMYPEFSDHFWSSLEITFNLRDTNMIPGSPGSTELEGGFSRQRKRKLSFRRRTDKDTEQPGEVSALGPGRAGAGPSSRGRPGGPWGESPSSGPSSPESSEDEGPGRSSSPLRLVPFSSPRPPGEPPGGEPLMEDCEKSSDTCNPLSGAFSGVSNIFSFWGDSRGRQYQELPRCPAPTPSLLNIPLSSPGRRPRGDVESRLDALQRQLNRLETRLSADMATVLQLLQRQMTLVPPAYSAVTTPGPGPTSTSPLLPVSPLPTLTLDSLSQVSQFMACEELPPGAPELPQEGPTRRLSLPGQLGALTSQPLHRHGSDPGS

For orientation: pIC50 means −log10 of the IC50, conventionally taken in molar units. The term inhibition denotes the drop in the measured response relative to a control, in per cent. A higher inhibition goes with strong suppression. As for `COc1cc(N)c(Cl)cc1C(=O)NCC1CCN(CCCn2cncn2)CC1` [Example 1, N-((1-(3-(1,2,4-triazol-1-yl)propyl)piperidin-4-yl)methyl)-4-amino-5-chloro-2-methoxybenzamide], the pIC50 on human 5-HT4 receptor (setting [1]) was 9.65. For the same compound, in the data set on ICR mice, the “Minimum lethal dose (MLD)” value is reported as more than 1000 mg/kg. In the data set on SD rats, the Gastric emptying rate was found to be 43.0%. The same compound registered an inhibition at 10 μM at hERG potassium channel of 1%.
Take `COc1cc(N)c(Cl)cc1C(=O)NCC1CCN(CCCn2cnnn2)CC1` [Example 2, N-((1-(3-(tetrazol-1-yl)propyl)piperidin-4-yl)methyl)-4-amino-5-chloro-2-methoxybenzamide]: the pIC50 at human 5-HT4 receptor (setting [1]) was 9.79. The “Minimum lethal dose (MLD)” value in the data set on ICR mice is more than 1000 mg/kg. In the data set on SD rats, this compound gave a Gastric emptying rate of 52.8%. Further, on hERG potassium channel, the inhibition at 10 μM is 4%.
Consider `COc1cc(N)c(Cl)cc1C(=O)NCC1CCN(CCCn2ccc3ccccc32)CC1` [Example 3, N-((1-(3-(indol-1-yl)propyl)piperidin-4-yl)methyl)-4-amino-5-chloro-2-methoxybenzamide], for which the pIC50 on human 5-HT4 receptor (setting [1]) was 10.41. Further, the “Minimum lethal dose (MLD)” value in the data set with ICR mice is listed as more than 1000 mg/kg. In the data set on SD rats, this compound displayed a Gastric emptying rate of 45.2%.
`COc1cc(N)c(Cl)cc1C(=O)NCC1CCN(CCCn2ccnc2C)CC1` [Example 4, N-((1-(3-(2-methylimidazol-1-yl)propyl)piperidin-4-yl)methyl)-4-amino-5-chloro-2-methoxybenzamide]: at human 5-HT4 receptor (setting [1]), the pIC50 is 9.64. The “Minimum lethal dose (MLD)” value in the data set on ICR mice is on record as more than 1000 mg/kg. This compound also displayed a Gastric emptying rate in the data set with SD rats of 46.4%. Also, at hERG potassium channel, the inhibition at 10 μM is 14%.
For the compound `COc1cc(N)c(Cl)cc1C(=O)NCC1CCN(CCCCCn2ccc3ccccc32)CC1` [Example 5, N-((1-(5-(indol-1-yl)pentyl)piperidin-4-yl)methyl)-4-amino-5-chloro-2-methoxybenzamide], the pIC50 at human 5-HT4 receptor (setting [1]) is 11.30. Moreover, the “Minimum lethal dose (MLD)” value in the data set with ICR mice is listed as more than 1000 mg/kg. In the data set with SD rats, this compound showed a Gastric emptying rate of 52.0%.
Turning to `COc1cc(N)c(Cl)cc1C(=O)NCC1CCN(CCCCCn2ccnn2)CC1` [Example 6, N-((1-(5-(1,2,3-triazol-1-yl)pentyl)piperidin-4-yl)methyl)-4-amino-5-chloro-2-methoxybenzamide], the pIC50 on human 5-HT4 receptor (setting [1]) was 9.99. The “Minimum lethal dose (MLD)” value with ICR mice was more than 1000 mg/kg. The Gastric emptying rate with SD rats was determined as 46.0%. The compound also showed an inhibition at 10 μM on hERG potassium channel of 8%.
`COc1cc(N)c(Cl)cc1C(=O)NCC1CCN(CCCn2ccnn2)CC1` [Example 7, N-((1-(3-(1,2,3-triazol-1-yl)propyl)piperidin-4-yl)methyl)-4-amino-5-chloro-2-methoxybenzamide]: the pIC50 at human 5-HT4 receptor (setting [1]) is 10.17. The “Minimum lethal dose (MLD)” value in the data set with ICR mice was more than 1000 mg/kg. In addition, the Gastric emptying rate in the data set on SD rats is on record as 56.1%. The inhibition at 10 μM on hERG potassium channel stood at 7%.
Regarding `COc1cc(N)c(Cl)cc1C(=O)NCC1CCN(CCCn2nccn2)CC1` [Example 8, N-((1-(3-(1,2,3-triazol-2-yl)propyl)piperidin-4-yl)methyl)-4-amino-5-chloro-2-methoxybenzamide], the pIC50 at human 5-HT4 receptor (setting [1]) was 9.74. Also, the “Minimum lethal dose (MLD)” value in the data set with ICR mice was more than 1000 mg/kg. Further, in the data set on SD rats, the Gastric emptying rate is given as 49.1%. At hERG potassium channel, this compound showed an inhibition at 10 μM of 15%.
Consider `COc1cc(N)c(Cl)cc1C(=O)NCC1CCN(Cc2cccnc2)CC1` [Example 9, N-((1-(pyridin-3-ylmethyl)piperidin-4-yl)methyl)-4-amino-5-chloro-2-methoxybenzamide], for which the pIC50 at human 5-HT4 receptor (setting [1]) was 9.57. Also, the “Minimum lethal dose (MLD)” value in the data set with ICR mice is given as more than 1000 mg/kg. Moreover, the Gastric emptying rate in the data set on SD rats was 51.2%. The compound further showed an inhibition at 10 μM on hERG potassium channel of 6%.
On to `COc1cc(N)c(Cl)cc1C(=O)NCC1CCN(Cc2cn(C)c3ccccc23)CC1` [Example 10, N-((1-((1-methylindol-3-yl)methyl)piperidin-4-yl)methyl)-4-amino-5-chloro-2-methoxybenzamide], for which the pIC50 on human 5-HT4 receptor (setting [1]) is 10.12. In addition, in the data set on ICR mice, the “Minimum lethal dose (MLD)” value is on record as more than 1000 mg/kg. In addition, the Gastric emptying rate in the data set on SD rats was 59.1%.
Consider `COc1cc(N)c(Cl)cc1C(=O)NCC1CCN(Cc2ncc[nH]2)CC1` [Example 11, N-((1-(imidazol-2-ylmethyl)piperidin-4-yl)methyl)-4-amino-5-chloro-2-methoxybenzamide], for which the pIC50 on human 5-HT4 receptor (setting [1]) was 9.34. The “Minimum lethal dose (MLD)” value in the data set on ICR mice is more than 1000 mg/kg. Also, in the data set on SD rats, the Gastric emptying rate came to 43.1%. In addition, the inhibition at 10 μM on hERG potassium channel was 21%.
`COc1cc(N)c(Cl)cc1C(=O)NCC1CCN(Cc2cccn2C)CC1` [Example 12, N-((1-((1-methylpyrrol-2-yl)methyl)piperidin-4-yl)methyl)-4-amino-5-chloro-2-methoxybenzamide]: the pIC50 on human 5-HT4 receptor (setting [1]) is 9.38. Besides, the “Minimum lethal dose (MLD)” value in the data set on ICR mice was more than 1000 mg/kg. The compound further came in with a Gastric emptying rate in the data set on SD rats of 62.0%. On hERG potassium channel, this compound came in with an inhibition at 10 μM of 32%.
Take `COc1cc(N)c(Cl)cc1C(=O)NCC1CCN(Cc2ccc(F)cc2)CC1` [Example 13, N-((1-(4-fluorobenzyl)piperidin-4-yl)methyl)-4-amino-5-chloro-2-methoxybenzamide]: at human 5-HT4 receptor (setting [1]), the pIC50 is 9.87. Further, in the data set with ICR mice, the “Minimum lethal dose (MLD)” value is listed as more than 1000 mg/kg. The Gastric emptying rate in the data set with SD rats turned out to be 52.3%. Moreover, the inhibition at 10 μM on hERG potassium channel came to 52%.
The corresponding values for `COc1cc(N)c(Cl)cc1C(=O)NCC1CCN(Cc2ccc(O)cc2)CC1` [Example 14, N-((1-(4-hydroxybenzyl)piperidin-4-yl)methyl)-4-amino-5-chloro-2-methoxybenzamide] are 9.43, more than 1000 mg/kg, 42.1% and 40%.
Compound `COc1cc(N)c(Cl)cc1C(=O)NCC1CCN(CCc2c[nH]c3ccccc23)CC1` [Example 15, N-((1-(2-(indol-3-yl)ethyl)piperidin-4-yl)methyl)-4-amino-5-chloro-2-methoxybenzamide] showed a pIC50 at human 5-HT4 receptor of 11.70. Also, the “Minimum lethal dose (MLD)” value with ICR mice was more than 1000 mg/kg. Further, the Gastric emptying rate in the data set on SD rats came out at 41.3%.
